Measured values taken from US7691579B2, “Methods and compositions for producing an enhanced immune response to a human papillomavirus immunogen” (priority 2005, dated 2010).
“Also recorded” adds a separate entry of the source.

B1: IL-2: murine IL-2 (Preprotech) (protein, UniProt P04351 21-169, looked up)
Interleukin-2: APTSSSTSSSTAEAQQQQQQQQQQQQHLEQLLMDLQELLSRMENYRNLKLPRMLTFKFYLPKQATELKDLQCLEDELGPLRHVLDLTQSKSFQLEDAENFISNIRVTVVKLKGSDNTFECQFDDESATVVDFLRRWIAFCQSIISTSPQ

What was measured:
HLA-A2 = molecular target: T1, HLA-A2 (Homo sapiens, UniProt P04439, D140Y/D185E/D98H/E176V/E277Q/G131W/G231S/I119V/I121R/I166T/I218V/L300P/L318F/N151K/N90K/P208A/P217A/Q86G/Q94H/R138H/R169H/T345S); assay: T2 binding assay (HLA-A2 stabilisation on T2 cells, fluorescence index)
T1 construct: The T2 cell expresses HLA-A2 and is TAP1 and TAP2 deficient; endogenous in cells; host or cells: T2 cells
Procedure: The sequences are derived from HPV 16 E2. T2 cells were loaded with various concentrations of peptides. Level of surface class I molecules were assessed by flow cytometric analysis using mouse monoclonal antibodies specific for HLA-A2. Fluorescence index=Fluorescence after peptide stimulation/Fluorescence without peptide −1.
Since little was known about the MHC class I epitopes for E2, HLA-A2 binding sequences derived from HPV 16 E2 were investigated. […] To test the binding affinity of these peptides to HLA-A2, a T2 binding assay was performed. The T2 cell expresses HLA-A2 and is TAP1 and TAP2 deficient.

[1] = tested on: C1R.ADD target cells pulsed with E2 peptides; assay: IFN-gamma ELISPOT assay in immunized AAD mice, response to E2; assay type: in vivo, HLA-A2 transgenic mice (AAD); conditions: for T cell response to E2 (IFN-gamma ELISPOT), in words / IFN-gamma producing cells (ELISPOT): AAD mice; for T cell response to E2 (IFN-gamma ELISPOT), in words: protocol as labelled; for IFN-gamma producing cells (ELISPOT): E2 peptides + GM-CSF + anti-CD40 in IFA, boosted with E2 peptides in IFA
Excerpt: AAD Mice were immunized with three E2 peptides. […] A target cell, C1R.ADD, was pulsed with peptides. C1R.ADD alone was used as negative control, and E7 86-93 was used as a specificity control. Mice are immunized with the indicated 1st immunization and are then given the indicated 2nd immunization (booster immunization) four weeks later. The G1, G2, and G3 immunization protocols employed are as follows: G1 (1st immunization: IFA+GM-CSF+anti-CD40 antibody+E2 peptides; 2nd immunization: IFA+E2 peptides); G2 (1st immunization: IFA+GM-CSF+anti-CD40 antibody+E2 peptides; 2 immunization: none); G3 (1st immunization: none; 2nd immunization: IFA+E2 peptides).
AAD Mice were immunized with different combinations of VLP-E7E2 and E2 peptides with/without Gm-CSF and αCD40. Target cells were pulsed with E2 peptide. Immunization with E7 11-20 peptides is used as a control. The G1 and G2 immunization protocols employed are as follows: G1 (1st immunization: IFA+GM-CSF+anti-CD40 antibody+E2 69-77 peptides); G2 (1st immunization: L1-VLP-L2-E2-E7+GM-CSF+anti-CD40 antibody).
Target cells are C1R.ADD cells pulsed with the indicated peptides.
(§1) Immunization: Mice were immunized subcutaneously at the base of the tail with the chimeric VLPs. GM-CSF (Preprotech, Rocky Hill, N.J.) was given the day before and the same day as the VLP injection. Anti-CD40 (SouthernBiotech, Birmingham Ala.) was given with the VLP. Mice were also immunized with 50 nmoles of peptide in incomplete Freund's adjuvant (IFA) with or without GM-CSF (5 μg/mouse) and anti-CD40 (10 μg/mouse). All vaccines were prepared immediately prior to injection. Each group had 4 mice, and the pooled spleen cells from four mice were used for assays. 10 μg of VLP-E7E2 was given to a mouse. The MW of the VLP-E7E2 is about 5280 Kd (72×L1@55 Kd=3960 Kd, and 12×L2E7E2@110 kd=1320 Kd). The number of moles of VLP-E7E2 in 10 μg of total protein is about […].
ELISPOT assay: The number of IFN-gamma-producing cells is also determined by ELISPOT assay. The anti-IFN-gamma antibody, 5 μg/ml, in PBS are coated on Millipore's multiscreen-HA plate (Millipore, Marlborough, Mass.) overnight at 4° C. The plate is blocked by incubation in RPMI containing 10% FCS for 3 hours at room temperature, and then the plate is washed two or three times with PBS. Target cells, EL-4 or C1R.ADD, are incubated with or without peptides for 2 hour at room temperature, washed twice. Then, they were placed at 5,000 per well. The effector cells were from 40,000 to 50,000 per well. After a 20 hour incubation period at 37° C., the plate is washed six times with PBS containing 0.05% Tween 20. The biotin-labeled anti-IFN-gamma, at 2 μg/ml, is added to the plate. After a 3 hour incubation period at room temperature, the plate is washed six times, and developed using an ABC kit from Vector Lab (Burlingame, Calif.). The spots are counted using Immunspot™ CTL (Cleveland Ohio). Data are expressed as an average from triplicate wells.
Induction of CD8+ T Cell Response to E2 Peptides. […] One group of mice was boosted with E2 peptides in IFA emulsion (IFA-E2) two weeks later. An IFN-gamma ELISPOT assay was performed using spleen cells collected either two or four weeks after vaccination as shown in FIG. 14. The immunization protocol is shown in Table 4 below (50 nmoles of each immunogen was employed; “E2s” refers to E2 peptides).
Enhancing CTL Response to E2. […] When AAD mice were immunized with either 50 nmoles E2 69-77 with immune modulators in IFA or 24 pmoles of VLP-E7E2 with immune-modulators in aqueous solution, a marginal CD8+ T cell response to E2 was detected by ELISPOT assay using fresh isolated spleen cells from both groups of mice (FIG. 15, Panel A and Panel B). […]

[2] = tested on: wild type (SEQ ID NO: 1) and modified (SEQ ID NO: 9) E2 peptides; assay: Elispot assay of mice immunized with wild type or modified E2 138-147 peptide; assay type: in vivo; conditions: mice immunized with the labelled peptide
[3] = tested on: EL-4 target cells pulsed with E7 49-57 peptides; assay: CTL assay (51Cr release) with spleen cells of immunized C57BL/6 mice; assay type: in vivo; conditions: given in aqueous solution with VLP-E7E2
Procedure: as §1
(§2) CTL assay: Two (or three) weeks after immunization, spleens were aseptically removed and single cell suspensions are prepared. […] Cytolytic activity of cells is measured by a 4-h assay with ^51Cr-labeled EL-4 or C1R.AAD target cells in triplicate wells. Percent ^51Cr release is calculated as 100×(experimental release-spontaneous release)/(maximum release-spontaneous release). Maximum release is determined from supernatants of cells that are lysed by addition of […]. Spontaneous release is determined from target cells culture in medium. Data are expressed as an average from triplicate wells. […]

[4] = tested on: C1R.AAD target cells pulsed with E7 11-20 and E7 86-93 peptides; assay: CTL assay (51Cr release) with spleen cells of immunized AAD mice, response to E7; assay type: in vivo, HLA-A2 transgenic mice (AAD); conditions: co-injected in aqueous solution
Procedure: as §1, §2

Molecule | binding to HLA-A2, in words (HLA-A2) | T cell response to E2 (IFN-gamma ELISPOT), in words [1] | concentration at FI 0.5 (HLA-A2) [µM] | IFN-gamma producing cells (ELISPOT) [1] [spots/million] | also measured
TLQDVSLEV [E2 93-101, HPV 16 E2 peptide] | did not bind; also recorded: no binding activity | did not elicit a T cell response | – | – | –
YLAEEASVTV [E2 138-147 modified] | higher HLA.A2 binding affinity | – | – | – | immune response to wild type and modified E2 peptides (Elispot) ([2]; listed as modified peptide (SEQ ID NO: 9)): elicit an immune response to both; immune response to wild type and modified E2 peptides (Elispot) ([2]; listed as new peptide (SEQ ID NO: 9)): more immunogenic
ALQAIELQL [E2 69-77, HPV 16 E2 peptide] | high binding affinity; also recorded: displayed binding ability | induce a CD8+ T cell response; also recorded: immunogenic | 50 | 32 | –
RLNVCQDKIL [E2 7-16, HPV 16 E2 peptide] | no binding activity | – | – | – | –
YICEEASVTV [E2 138-147] | high binding affinity; also recorded: displayed binding ability | induce a CD8+ T cell response; also recorded: immunogenic | 50 | 53 | IFN-gamma production (ELISPOT), response to E2 ([1]; boosted with E2 peptides in IFA four weeks after the initial immunization): more immunogenic; immune response to wild type and modified E2 peptides (Elispot) [2]: failed to elicit an immune response
B1 | – | – | – | – | effect on the VLP-E7E2 induced CTL response [3]: no effect; effect of co-injection on the VLP-E7E2-induced CTL response to E7 [4]: no effect
